Reference: patent publication US20080234368A9, “Therapeutic compositions and methods of use” (Trustees of Dartmouth College, priority 1998, published 2008)

How the values were obtained:
[1] = test system: NRP-152 non-malignant prostate epithelium cells; assay: Suppression of thymidine incorporation, dose-response (FIG. 13); assay type: cell-based, rat; details: NRP-152, 72 h; oleanolic acid statement at concentrations of 1 μM or less
Procedure: Inhibitors of cell proliferation are known to be useful chemopreventive and chemotherapeutic agents. CDDO was tested against a wide variety of cells derived from highly aggressive leukemias and carcinomas, as well as from non-neoplastic tissues. NRP-152 cells were grown as described in Danielpour et al., 1994. MCF-7 cells were grown in phenol red-free RPMI 1640/10% charcoal-stripped FBS with added 17-β-estradiol (10 μM). Triterpenoids were added at the time of plating, and 72 h later ^3H-thymidine (1 μCi/well) was added for the final 2 h of incubation. Incorporation of thymidine was measured after cells were precipitated with TCA (10%), washed, and solubilized. The symbols used in FIG. 13 are CDDO, ▪; TP-82, ◯; and oleanolic acid; ●.

[2] = test system: LCDB acute myelogenous leukemia cell line; assay: Monocytic differentiation, α-naphthyl acetate esterase staining; assay type: cell-based, human
Procedure: CDDO induces monocytic differentiation in the poorly differentiated LCDB acute myelogenous leukemia cell line, derived from a chemotherapy-resistant patient at the NCI Pediatric Oncology Branch. FIG. 11 illustrates LCDB cells seeded in RPMI 1640/2% FBS, either alone (11A), with 2.5 ng/ml TGF-β1 (11B), with 10^−8 M CDDO (11C), or with both TGF-β1 and CDDO (11D). After 48 h, cytospin slide preparations were made and stained for α-naphthyl acetate esterase activity (kit from Sigma). PC12 cells were cultured for 5 days in gridded dishes in DMEM/10% FBS and 5% horse serum (Smith et al., 1997), either alone (11E), with 100 ng/ml 7S NGF (11F), with 10^−6 M CDDO (11G), or with both NGF and CDDO (11H). […] Methods for quantitative image analysis of size of cells and neurites have been described (De 1a Torre et al., 1997). Control cells in FIG. 11E are approximately 10 μm in diameter. 3T3-L1 cells were grown to confluency in DMEM/5% calf serum, and then treated once with CDDO in DMEM/10% FBS (FIG. 12A) or with CDDO and/or LG100268 in DMEM/10% FBS (FIG. 12B). Every two days thereafter, medium was changed to DMEM/10% FBS, without added CDD0 or LG100268. Cells were harvested on day 8 (FIG. 12A) or day 6 (FIG. 12B), and GPDH was measured in lysates, using a standard assay for consumption of NADH at 340 nm (Wise and Green, 1979).

[3] = test system: NB4 promyelocytic leukemia line; assay: Differentiation of leukemia cells (data not shown); assay type: cell-based, human; details: by itself or in combination with TGF-β1
[4] = test system: PGE2 production in primary macrophages; assay: Suppression of PGE2 production in primary macrophages (FIG. 14C); assay type: cell-based, mouse; details: levels as low as 10^−9 M; IFN-γ 5 ng/ml and LPS 5 ng/ml, 48 h
Procedure: (§1) FIG. 14(A) illustrates Western blots; primary mouse macrophages; IFN-γ, 10 ng/ml; LPS, 2 ng/ml were added to cultures together with triterpenoids or dexamethasone (concentrations shown as […]); cells were harvested at 12 h. FIG. 14(B) illustrates Northern blots, RAW 264.7 macrophage-like cell line. IFN-γ, 10 ng/ml; LPS, 1 ng/ml; TNF-α, 10 ng/ml, were added to cultures together with CDDO or dexamethasone. RNA prepared after 12 h; GAPDH used as a loading control. FIG. 14(C) illustrates suppression of production of NO and PGEF in primary macrophages. For NO studies, cells were treated with IFN-γ, 10 ng/ml, together with CDDO (M), dexamethasone (O), TP-82 (□), or oleanolic acid (A). After 48 h, supernatants were analyzed for NO by the Griess reaction. For PGEF studies, cells were treated with IFN-γ, 5 ng/ml, and LPS, 5 ng/ml, together with the same set of inhibitors. After 48 h, PGE was measured in supernatants by immunoassay. Control values (no inhibition) for NO and PGE2 were 4.7 nmol/[…] and 2.2 ng/ml/2×10^5 cells, respectively. FIGS. (14D) and (14E) illustrate (human colon myofibroblasts) ^18Co cells grown in MEM/10% FBS; other methods are the same as reported above for macrophages. FIG. 14(D) illustrates Northern blots showing dose-response for suppression of COX-2 mRNA after induction with IL-1β (30 pg/ml). CDDO was added together with IL-1. […]

[5] = test system: PGE2 production in 18Co cells; assay: PGE2 in culture medium of IL-1β-treated 18Co cells; assay type: cell-based, human; details: IL-1β 30 pg/ml
Procedure: as §1

[6] = test system: LPS-induced NO production in rat microglia; assay: LPS-induced NO production in primary microglial cultures; assay type: cell-based; details: for inhibition of LPS induction of NO production: LPS 5 ng/ml, 18 h
Procedure: For the following examples, stock solutions of CDDO (0.01 M) were made in DMSO and aliquots frozen at −20° C. Serial dilutions were made in DMSO before addition to cell culture media. Primary rat microglia and hippocampal neurons were isolated and cultured as described by Flaris et al., 1993 and Ren and Flanders, 1996.
The roles of inflammatory mediators, as well as aberrant programs for cell survival and apoptosis, in the genesis of cancer and Alzheimer's Disease are now undergoing serious investigation (McGeer and McGeer, 1995; Merrill and Benveniste, 1996; Akama et al., 1998). CDDO was tested in this example as a suppressor of de novo formation of iNOS in cultured microglia (the resident macrophages of the brain), as well as its ability to protect cultured hippocampal neurons from cell death induced by β-amyloid. […] Thus, LPS (5 ng/ml) induced iNOS in primary microglial cultures and caused a 27-fold increase in production of NO within 18 h. Concomitant treatment of these cultures with CDDO at either 10^−6 or 10 ^−7 M inhibited this induction by 73% and 52%, respectively. We have also explored the possibility that CDDO can protect cultured hippocampal neurons from cell death induced by the peptide β-amyloid, since NO has been implicated (Akama et al., 1998) in the neurotoxic actions of this peptide which is central to the pathogenesis of Alzheimer's disease (Selkoe, 1997). Hippocampal neurons were isolated and cultured from 16 day rat embryos and then treated with CDDO for 24 h before adding the β-amyloid peptide fragment, amino acids 25-35, at a final concentration of 10 μM. This dosing with β-amyloid alone caused death of more than half of the neurons in the culture within 24 h, as measured by MTT assay.

## CC1(C)CC[C@]2(C(=O)O)CC[C@]3(C)[C@H](C(=O)C=C4[C@@]5(C)C=C(C#N)C(=O)C(C)(C)[C@@H]5CC[C@]43C)[C@@H]2C1 [Compound 6, 2-cyano-3,12-dioxoolean-1,9-dien-28-oic acid]
[1]
  suppressing thymidine incorporation: highly active in the nanomolar range
[2]; 10^−8 M CDDO with 2.5 ng/ml TGF-β1
  α-naphthyl esterase activity, combination effect: additive effect
[2]; 10^−8 M CDDO, within 48 h
  induction of α-naphthyl esterase activity (monocytic differentiation): induced the activity of this enzyme
[3]
  differentiative effects: differentiative effects
[4]
  inhibition of cumulative PGE2 production: Significant inhibition
[5]
  PGE2 levels in the culture medium: lowering of PGE2 levels
[6]; CDDO 10^−6 M
  inhibition of LPS induction of NO production: 73%
[6]; CDDO 10^−7 M
  inhibition of LPS induction of NO production: 52%
[6]; rat microglia cells
  activity on LPS-induced NO production compared with dexamethasone (FIG. 2): favorable to that of dexamethasone
